From PubChem BioAssay (NCI)
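Interpolation was linear, between the two tested concentrations surrounding the appropriate level; five concentrations were tested over 48 hours in 96-well plates. At the TGI there is no net growth.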

Legend:
Assay in all cases: NCI tumour cell line growth inhibition, 48 h
NCI-H23 lung = tested on: NCI-H23 lung
HL-60(TB) leukemia = tested on: HL-60(TB) leukemia
MDA-N = tested on: MDA-N
MALME-3M melanoma = tested on: MALME-3M melanoma
HCT-15 colon = tested on: HCT-15 colon
MOLT-4 leukemia = tested on: MOLT-4 leukemia
A549 NSCLC = tested on: A549 NSCLC
UACC-62 melanoma = tested on: UACC-62 melanoma
HOP-62 NSCLC = tested on: HOP-62 NSCLC
OVCAR-8 ovarian = tested on: OVCAR-8 ovarian
UO-31 renal = tested on: UO-31 renal
SNB-75 CNS = tested on: SNB-75 CNS
SK-MEL-5 melanoma = tested on: SK-MEL-5 melanoma
SW-620 colon = tested on: SW-620 colon
COLO 205 colon = tested on: COLO 205 colon
UACC-257 melanoma = tested on: UACC-257 melanoma
NCI-H460 lung = tested on: NCI-H460 lung
OVCAR-3 ovarian = tested on: OVCAR-3 ovarian
SF-295 CNS = tested on: SF-295 CNS
M14 melanoma = tested on: M14 melanoma

Row | SMILES | TGI (NCI-H23 lung) | TGI (HL-60(TB) leukemia) | TGI (MDA-N) | TGI (MALME-3M melanoma) | TGI (HCT-15 colon) | TGI (MOLT-4 leukemia) | TGI (A549 NSCLC) | TGI (UACC-62 melanoma) | TGI (HOP-62 NSCLC) | TGI (OVCAR-8 ovarian) | TGI (UO-31 renal) | TGI (SNB-75 CNS) | TGI (SK-MEL-5 melanoma) | TGI (SW-620 colon) | TGI (COLO 205 colon) | TGI (UACC-257 melanoma) | TGI (NCI-H460 lung) | TGI (OVCAR-3 ovarian) | TGI (SF-295 CNS) | TGI (M14 melanoma)
1 | CC1=C(N2CC2)C(=O)c2nc3n(c2C1=O)CCC3OC(=O)CCl (stereo not given) | 0.0825 µM | 3.18 µM | 0.056 µM | 0.103 µM | 0.0825 µM | 5.89 µM | 0.169 µM | 0.0696 µM | 0.145 µM | 0.165 µM | 0.0944 µM | 0.05 µM | 0.0893 µM | 0.191 µM | 0.444 µM | 0.235 µM | 0.123 µM | 0.52 µM | 0.204 µM | 0.0814 µM
2 | COC(=O)c1ccc2c(O)c(O)ccc2c1 | 22.7 µM | 5.06 µM | 3.29 µM | 24.2 µM | 27.8 µM | 13.7 µM | 42 µM | 29.4 µM | 32.9 µM | 37.2 µM | 36.4 µM | 25.4 µM | 8.58 µM | 25.3 µM | 26.7 µM | 28.1 µM | 39.3 µM | 17 µM | 17.2 µM | 31 µM
3 | CC(=O)Nc1ccccc1SCCSSCCSc1ccccc1NC(C)=O | 83.9 µM | 44.8 µM | 68.7 µM | > 100 µM | 42.2 µM | > 100 µM | 69.8 µM | > 100 µM | > 100 µM | > 100 µM | 35.8 µM | 73.2 µM | > 100 µM | > 100 µM | 40.5 µM | 45 µM | 68.6 µM | > 100 µM | 73.7 µM | > 100 µM
4 | O=C(NNC1=NCCN1)c1ccco1 | > 100 µM | > 100 µM | > 100 µM | > 100 µM | > 100 µM | > 100 µM | > 100 µM | > 100 µM | > 100 µM | > 100 µM | > 100 µM | > 100 µM | > 100 µM | > 100 µM | > 100 µM | > 100 µM | > 100 µM | > 100 µM | > 100 µM | > 100 µM
5 | CCC1C(c2cc(OC)c(OC)c(OC)c2)c2cc3c(cc2OC1N1CCCC1)OCO3 (stereo not given) | 39 µM | > 23.3 µM | 0.795 µM | 40.3 µM | 27.2 µM | 22.8 µM | 20.2 µM | 23.4 µM | 15.9 µM | 23.9 µM | 23.1 µM | 31.4 µM | 12.5 µM | 45.4 µM | 12.1 µM | 55.6 µM | 12.4 µM | 8.53 µM | 8.25 µM | 26.6 µM
6 | C=CCOC(=O)/C(=C\c1ccc(OC)c(OC)c1)c1ccc(OC)c(OC)c1 | > 100 µM | 40.3 µM | > 100 µM | > 100 µM | > 100 µM | 49.5 µM | > 100 µM | > 100 µM | > 100 µM | > 100 µM | 80 µM | 36.3 µM | > 100 µM | > 100 µM | > 100 µM | > 100 µM | > 100 µM | > 100 µM | > 100 µM | > 100 µM
7 | COC(=O)[C@@H]1CN(C(=O)CCc2ccccc2)C(=O)N1C(=O)OCc1ccccc1 | > 100 µM | > 100 µM | > 100 µM | > 100 µM | > 100 µM | > 100 µM | > 100 µM | > 100 µM | > 100 µM | > 100 µM | > 100 µM | > 100 µM | > 100 µM | > 100 µM | > 100 µM | > 100 µM | > 100 µM | > 100 µM | > 100 µM | > 100 µM
